# Laboratory results as given in ChEMBL document CHEMBL4507318, “Data for DCP probe BAY-985” (2021).
# Tests used:
# [1] = test system: Tyrosine-protein kinase ABL1 (Homo sapiens), P00519 [F317I]
# [2] = target: Tyrosine-protein kinase ABL2 (Homo sapiens) (UniProt P42684)
# [3] = target: Activin receptor type-2B (Homo sapiens) (UniProt Q13705)
# [4] = target: ALK tyrosine kinase receptor (Homo sapiens) (UniProt Q9UM73)
# [5] = target: NUAK family SNF1-like kinase 1 (Homo sapiens) (UniProt O60285)
# [6] = target: Mitogen-activated protein kinase kinase kinase 5 (Homo sapiens) (UniProt Q99683)
# [7] = target: Serine/threonine-protein kinase BRSK1 (Homo sapiens) (UniProt Q8TDC3)
# [8] = target: Calcium/calmodulin-dependent protein kinase kinase 2 (Homo sapiens) (UniProt Q96RR4)
# [9] = target: Cyclin-dependent kinase 11B (Homo sapiens) (UniProt P21127)
# [10] = target: Cyclin-dependent kinase 2 (Homo sapiens) (UniProt P24941)
# [11] = target: Cyclin-dependent kinase 3 (Homo sapiens) (UniProt Q00526)
# [12] = target: Cyclin-dependent kinase 5 (Homo sapiens) (UniProt Q00535)
# [13] = target: Casein kinase II subunit alpha (Homo sapiens) (UniProt P68400)
# [14] = test system: Epidermal growth factor receptor (Homo sapiens), P00533 [G719C]
# [15] = target: Receptor-type tyrosine-protein kinase FLT3 (Homo sapiens) (UniProt P36888)
# [16] = target: Beta-adrenergic receptor kinase 1 (Homo sapiens) (UniProt P25098)
# [17] = target: Rhodopsin kinase GRK7 (Homo sapiens) (UniProt Q8WTQ7)
# [18] = target: Homeodomain-interacting protein kinase 4 (Homo sapiens) (UniProt Q8NE63)
# [19] = target: Mitogen-activated protein kinase 9 (Homo sapiens) (UniProt P45984)
# [20] = test system: Mast/stem cell growth factor receptor Kit (Homo sapiens), P10721 [V559D,T670I]
# [21] = target: Leukocyte tyrosine kinase receptor (Homo sapiens) (UniProt P29376)
# [22] = target: Tyrosine-protein kinase Lyn (Homo sapiens) (UniProt P07948)
# [23] = target: Dual specificity mitogen-activated protein kinase kinase 6 (Homo sapiens) (UniProt P52564)
# [24] = target: Myosin light chain kinase, smooth muscle (Homo sapiens) (UniProt Q15746)
# [25] = target: Myosin light chain kinase family member 4 (Homo sapiens) (UniProt Q86YV6)
# [26] = target: Serine/threonine-protein kinase Nek2 (Homo sapiens) (UniProt P51955)
# [27] = target: Serine/threonine-protein kinase Nek7 (Homo sapiens) (UniProt Q8TDX7)
# [28] = target: Serine/threonine-protein kinase PAK 2 (Homo sapiens) (UniProt Q13177)
# [29] = target: Phosphatidylinositol 4,5-bisphosphate 3-kinase catalytic subunit gamma isoform (Homo sapiens) (UniProt P48736)
# [30] = target: Serine/threonine-protein kinase pim-1 (Homo sapiens) (UniProt P11309)
# [31] = target: Phosphatidylinositol 5-phosphate 4-kinase type-2 gamma (Homo sapiens) (UniProt Q8TBX8)
# [32] = target: Serine/threonine-protein kinase D3 (Homo sapiens) (UniProt O94806)
# [33] = target: Ribosomal protein S6 kinase alpha-1 (Homo sapiens) (UniProt Q15418)
# [34] = target: Ribosomal protein S6 kinase alpha-3 (Homo sapiens) (UniProt P51812)
# [35] = target: Ribosomal protein S6 kinase alpha-2 (Homo sapiens) (UniProt Q15349)
# [36] = target: Serine/threonine-protein kinase Sgk3 (Homo sapiens) (UniProt Q96BR1)
# [37] = target: SNF-related serine/threonine-protein kinase (Homo sapiens) (UniProt Q9NRH2)
# [38] = target: STE20/SPS1-related proline-alanine-rich protein kinase (Homo sapiens) (UniProt Q9UEW8)
# [39] = target: Angiopoietin-1 receptor (Homo sapiens) (UniProt Q02763)
# [40] = target: Serine/threonine-protein kinase WNK2 (Homo sapiens) (UniProt Q9Y3S1)
# [41] = target: 5-hydroxytryptamine receptor 1E (Homo sapiens) (UniProt P28566); conditions: Compound concentration 10.0 uM
# [42] = target: D(1A) dopamine receptor (Homo sapiens) (UniProt P21728); conditions: Compound concentration 10.0 uM
# [43] = target: D(2) dopamine receptor (Homo sapiens) (UniProt P14416); conditions: Compound concentration 10.0 uM
# [44] = target: Muscarinic acetylcholine receptor M2 (Homo sapiens) (UniProt P08172); conditions: Compound concentration 10.0 uM
# [45] = target: Sigma non-opioid intracellular receptor 1 (Homo sapiens) (UniProt Q99720); conditions: Compound concentration 10.0 uM
# [46] = Compound concentration 1000.0 nM
# [47] = Compound concentration 100.0 nM
# D(1A) dopamine receptor (Homo sapiens), sequence (P21728 whole entry): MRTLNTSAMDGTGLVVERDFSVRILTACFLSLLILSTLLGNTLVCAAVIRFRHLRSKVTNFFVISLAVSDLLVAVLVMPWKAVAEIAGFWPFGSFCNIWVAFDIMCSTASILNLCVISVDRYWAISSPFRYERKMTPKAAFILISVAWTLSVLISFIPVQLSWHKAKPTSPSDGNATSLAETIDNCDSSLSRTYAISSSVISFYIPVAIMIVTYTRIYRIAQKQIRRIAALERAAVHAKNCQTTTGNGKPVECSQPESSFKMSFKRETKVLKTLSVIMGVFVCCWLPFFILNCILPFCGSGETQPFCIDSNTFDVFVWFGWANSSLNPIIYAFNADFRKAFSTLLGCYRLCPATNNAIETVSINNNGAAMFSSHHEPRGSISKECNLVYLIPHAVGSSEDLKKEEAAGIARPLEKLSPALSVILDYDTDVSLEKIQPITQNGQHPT
# Mitogen-activated protein kinase 9 (Homo sapiens), sequence (P45984 whole entry, looked up): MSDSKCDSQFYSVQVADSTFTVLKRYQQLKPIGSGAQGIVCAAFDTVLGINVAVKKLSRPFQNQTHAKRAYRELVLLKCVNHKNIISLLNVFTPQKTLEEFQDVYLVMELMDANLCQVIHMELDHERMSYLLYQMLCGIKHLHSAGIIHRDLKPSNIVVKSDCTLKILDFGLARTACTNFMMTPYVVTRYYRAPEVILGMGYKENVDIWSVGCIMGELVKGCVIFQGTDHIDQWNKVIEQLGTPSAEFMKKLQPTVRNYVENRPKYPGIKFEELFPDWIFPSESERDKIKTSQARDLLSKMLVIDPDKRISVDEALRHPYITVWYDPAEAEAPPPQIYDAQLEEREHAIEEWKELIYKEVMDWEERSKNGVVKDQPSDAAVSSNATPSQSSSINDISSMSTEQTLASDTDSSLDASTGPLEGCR
# Activin receptor type-2B (Homo sapiens), sequence (Q13705 whole entry): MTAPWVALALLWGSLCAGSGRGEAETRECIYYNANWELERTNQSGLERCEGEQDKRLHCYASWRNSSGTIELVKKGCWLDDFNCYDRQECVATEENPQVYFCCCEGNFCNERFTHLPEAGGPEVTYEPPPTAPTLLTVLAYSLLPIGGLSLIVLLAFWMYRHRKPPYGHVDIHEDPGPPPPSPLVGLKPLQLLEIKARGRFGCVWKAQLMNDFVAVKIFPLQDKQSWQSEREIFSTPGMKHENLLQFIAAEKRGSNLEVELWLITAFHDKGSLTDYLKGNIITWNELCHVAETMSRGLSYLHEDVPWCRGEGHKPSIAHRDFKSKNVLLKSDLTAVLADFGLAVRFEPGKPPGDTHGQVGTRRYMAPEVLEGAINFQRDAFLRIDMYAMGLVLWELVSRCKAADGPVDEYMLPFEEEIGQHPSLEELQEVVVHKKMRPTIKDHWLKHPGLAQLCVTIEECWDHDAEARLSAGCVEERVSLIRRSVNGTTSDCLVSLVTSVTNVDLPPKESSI
# Serine/threonine-protein kinase Sgk3 (Homo sapiens), sequence (Q96BR1 whole entry): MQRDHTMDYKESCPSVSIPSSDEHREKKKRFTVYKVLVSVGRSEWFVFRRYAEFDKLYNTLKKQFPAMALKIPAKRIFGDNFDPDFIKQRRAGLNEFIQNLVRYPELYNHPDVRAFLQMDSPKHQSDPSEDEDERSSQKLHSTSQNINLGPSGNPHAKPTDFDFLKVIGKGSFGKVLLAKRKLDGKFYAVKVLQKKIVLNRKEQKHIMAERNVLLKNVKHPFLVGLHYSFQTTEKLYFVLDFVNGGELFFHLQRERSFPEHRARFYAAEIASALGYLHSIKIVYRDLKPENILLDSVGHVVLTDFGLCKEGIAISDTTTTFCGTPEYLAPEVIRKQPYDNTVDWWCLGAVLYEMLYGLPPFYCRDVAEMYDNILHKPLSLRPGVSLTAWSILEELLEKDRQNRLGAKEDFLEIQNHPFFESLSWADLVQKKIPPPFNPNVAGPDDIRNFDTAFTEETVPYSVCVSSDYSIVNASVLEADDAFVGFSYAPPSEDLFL
# Tyrosine-protein kinase ABL1 (Homo sapiens), P00519 [F317I], sequence (P00519 whole entry F317I): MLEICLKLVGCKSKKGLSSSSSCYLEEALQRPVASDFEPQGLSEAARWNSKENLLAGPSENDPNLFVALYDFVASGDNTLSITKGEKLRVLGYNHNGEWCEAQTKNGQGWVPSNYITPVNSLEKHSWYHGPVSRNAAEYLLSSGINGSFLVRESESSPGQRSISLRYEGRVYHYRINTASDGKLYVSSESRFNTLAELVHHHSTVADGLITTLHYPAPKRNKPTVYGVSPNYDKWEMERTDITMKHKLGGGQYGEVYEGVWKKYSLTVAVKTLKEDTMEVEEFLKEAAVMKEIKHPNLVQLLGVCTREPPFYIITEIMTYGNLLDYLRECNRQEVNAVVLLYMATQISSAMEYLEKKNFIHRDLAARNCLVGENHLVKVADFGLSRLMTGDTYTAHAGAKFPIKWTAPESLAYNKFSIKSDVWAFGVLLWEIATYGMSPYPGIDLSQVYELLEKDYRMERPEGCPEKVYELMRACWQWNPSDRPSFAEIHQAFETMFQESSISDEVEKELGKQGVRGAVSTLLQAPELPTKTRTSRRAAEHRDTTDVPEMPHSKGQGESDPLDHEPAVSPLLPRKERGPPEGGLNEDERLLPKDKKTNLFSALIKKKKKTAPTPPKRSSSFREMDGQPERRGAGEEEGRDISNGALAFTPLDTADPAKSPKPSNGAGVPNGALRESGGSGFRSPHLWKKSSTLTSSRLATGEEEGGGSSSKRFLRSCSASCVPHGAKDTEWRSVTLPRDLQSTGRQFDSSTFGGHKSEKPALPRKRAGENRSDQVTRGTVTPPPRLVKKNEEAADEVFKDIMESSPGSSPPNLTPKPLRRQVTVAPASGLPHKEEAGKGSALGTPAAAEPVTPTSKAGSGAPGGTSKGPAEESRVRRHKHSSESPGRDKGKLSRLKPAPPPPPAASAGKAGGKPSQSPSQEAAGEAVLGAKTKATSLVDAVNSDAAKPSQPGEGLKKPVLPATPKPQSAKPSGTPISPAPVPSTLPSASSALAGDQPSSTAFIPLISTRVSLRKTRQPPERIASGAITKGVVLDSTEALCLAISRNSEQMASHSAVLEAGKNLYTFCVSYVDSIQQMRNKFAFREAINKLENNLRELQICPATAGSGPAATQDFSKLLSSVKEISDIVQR
# Muscarinic acetylcholine receptor M2 (Homo sapiens), sequence (P08172 whole entry): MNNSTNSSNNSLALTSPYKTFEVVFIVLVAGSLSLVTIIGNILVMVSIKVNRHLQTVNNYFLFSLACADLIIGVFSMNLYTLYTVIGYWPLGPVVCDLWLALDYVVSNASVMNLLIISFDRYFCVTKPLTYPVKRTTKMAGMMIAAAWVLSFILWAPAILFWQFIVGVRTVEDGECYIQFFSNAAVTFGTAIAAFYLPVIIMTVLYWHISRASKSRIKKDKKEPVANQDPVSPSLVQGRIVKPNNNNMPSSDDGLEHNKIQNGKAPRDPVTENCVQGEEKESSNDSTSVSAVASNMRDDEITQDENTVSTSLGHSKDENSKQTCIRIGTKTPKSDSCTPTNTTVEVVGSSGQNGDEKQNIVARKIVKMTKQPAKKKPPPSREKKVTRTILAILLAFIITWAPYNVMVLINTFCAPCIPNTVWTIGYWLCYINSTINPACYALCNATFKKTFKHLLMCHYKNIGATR
# Ribosomal protein S6 kinase alpha-3 (Homo sapiens), sequence (P51812 whole entry): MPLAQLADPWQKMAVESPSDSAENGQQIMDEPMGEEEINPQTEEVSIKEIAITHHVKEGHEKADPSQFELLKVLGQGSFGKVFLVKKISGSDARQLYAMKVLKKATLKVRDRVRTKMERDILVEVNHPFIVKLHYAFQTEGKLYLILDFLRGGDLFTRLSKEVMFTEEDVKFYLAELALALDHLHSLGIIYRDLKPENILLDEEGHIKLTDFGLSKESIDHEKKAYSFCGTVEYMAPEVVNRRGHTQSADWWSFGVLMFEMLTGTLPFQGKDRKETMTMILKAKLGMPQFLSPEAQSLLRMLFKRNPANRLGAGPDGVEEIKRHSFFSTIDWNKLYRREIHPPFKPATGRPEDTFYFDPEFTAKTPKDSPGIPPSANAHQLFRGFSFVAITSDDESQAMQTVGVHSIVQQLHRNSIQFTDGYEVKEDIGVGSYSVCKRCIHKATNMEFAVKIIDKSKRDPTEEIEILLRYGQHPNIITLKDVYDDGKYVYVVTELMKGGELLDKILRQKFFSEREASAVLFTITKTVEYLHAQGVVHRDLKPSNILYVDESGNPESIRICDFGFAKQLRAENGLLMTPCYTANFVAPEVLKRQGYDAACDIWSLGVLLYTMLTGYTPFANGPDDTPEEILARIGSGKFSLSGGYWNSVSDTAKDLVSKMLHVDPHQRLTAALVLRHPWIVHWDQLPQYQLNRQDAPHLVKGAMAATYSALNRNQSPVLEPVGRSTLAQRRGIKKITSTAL
# Cyclin-dependent kinase 11B (Homo sapiens), sequence (P21127 whole entry): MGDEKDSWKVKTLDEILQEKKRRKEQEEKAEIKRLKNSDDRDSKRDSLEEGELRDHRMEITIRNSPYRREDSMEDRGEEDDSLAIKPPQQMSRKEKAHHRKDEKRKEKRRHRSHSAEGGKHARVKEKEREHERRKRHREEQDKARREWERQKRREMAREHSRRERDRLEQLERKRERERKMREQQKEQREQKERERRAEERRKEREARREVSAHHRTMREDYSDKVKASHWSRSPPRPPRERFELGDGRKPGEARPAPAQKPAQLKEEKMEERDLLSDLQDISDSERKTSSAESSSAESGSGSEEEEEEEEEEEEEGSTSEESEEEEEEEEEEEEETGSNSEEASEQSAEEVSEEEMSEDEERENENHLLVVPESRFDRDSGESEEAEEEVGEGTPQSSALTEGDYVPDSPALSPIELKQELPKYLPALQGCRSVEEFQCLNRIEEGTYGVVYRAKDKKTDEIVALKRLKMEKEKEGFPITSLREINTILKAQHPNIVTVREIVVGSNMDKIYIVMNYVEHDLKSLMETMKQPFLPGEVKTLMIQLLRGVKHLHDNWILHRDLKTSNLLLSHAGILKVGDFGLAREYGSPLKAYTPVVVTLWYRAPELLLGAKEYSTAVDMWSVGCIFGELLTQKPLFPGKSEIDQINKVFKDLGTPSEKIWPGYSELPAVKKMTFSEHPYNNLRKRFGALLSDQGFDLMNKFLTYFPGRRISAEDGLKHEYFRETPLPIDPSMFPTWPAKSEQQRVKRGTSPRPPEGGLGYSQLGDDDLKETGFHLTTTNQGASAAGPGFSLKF
smiles,measurement,setting,value
CN(C)c1ncnc(-c2ccc3nc(Nc4cc(CN5CCN(C(=O)CC(F)(F)F)CC5)ccn4)[nH]c3c2)c1Cl [BAY-440],residual activity,[1]; [46],28%
same,residual activity,[2]; [46],71%
same,residual activity,[3]; [46],100%
same,residual activity,[4]; [46],75%
same,residual activity,[5]; [46],100%
same,residual activity,[6]; [46],100%
same,residual activity,[7]; [46],100%
same,residual activity,[8]; [46],88%
same,residual activity,[9]; [46],100%
same,residual activity,[10]; [46],100%
same,residual activity,[11]; [46],86%
same,residual activity,[12]; [46],100%
same,residual activity,[13]; [46],80%
same,residual activity,[14]; [46],88%
same,residual activity,[15]; [46],71%
same,residual activity,[16]; [46],57%
same,residual activity,[17]; [46],90%
same,residual activity,[18]; [46],100%
same,residual activity,[19]; [46],47%
same,residual activity,[20]; [46],100%
same,residual activity,[21]; [46],88%
same,residual activity,[22]; [46],94%
same,residual activity,[23]; [46],92%
same,residual activity,[24]; [46],68%
same,residual activity,[25]; [46],100%
same,residual activity,[26]; [46],86%
same,residual activity,[27]; [46],100%
same,residual activity,[28]; [46],100%
same,residual activity,[29]; [46],100%
same,residual activity,[30]; [46],100%
same,residual activity,[31]; [46],95%
same,residual activity,[32]; [46],88%
same,residual activity,[33]; [46],100%
same,residual activity,[34]; [46],87%
same,residual activity,[35]; [46],100%
same,residual activity,[36]; [46],72%
same,residual activity,[37]; [46],100%
same,residual activity,[38]; [46],69%
same,residual activity,[39]; [46],87%
same,residual activity,[40]; [46],59%
same,inhibition,[41],29.3%
same,inhibition,[42],23%
same,inhibition,[43],10.6%
same,inhibition,[44],35.1%
same,inhibition,[45],13.9%
C[C@H](c1ccnc(Nc2nc3ccc(-c4cc(N(C)C)ncn4)cc3[nH]2)c1)N1CCN(C(=O)CC(F)(F)F)CC1 [BAY-985],residual activity,[1]; [47],100%
same,residual activity,[2]; [47],100%
same,residual activity,[3]; [47],81%
same,residual activity,[4]; [47],97%
same,residual activity,[5]; [47],93%
same,residual activity,[6]; [47],100%
same,residual activity,[7]; [47],100%
same,residual activity,[8]; [47],77%
same,residual activity,[9]; [47],100%
same,residual activity,[10]; [47],100%
same,residual activity,[11]; [47],100%
same,residual activity,[12]; [47],86%
same,residual activity,[13]; [47],100%
same,residual activity,[14]; [47],84%
same,residual activity,[15]; [47],67%
same,residual activity,[16]; [47],100%
same,residual activity,[17]; [47],89%
same,residual activity,[18]; [47],100%
same,residual activity,[19]; [47],89%
same,residual activity,[20]; [47],99%
same,residual activity,[21]; [47],100%
same,residual activity,[22]; [47],97%
same,residual activity,[23]; [47],96%
same,residual activity,[24]; [47],100%
same,residual activity,[25]; [47],100%
same,residual activity,[26]; [47],100%
same,residual activity,[27]; [47],100%
same,residual activity,[28]; [47],68%
same,residual activity,[29]; [47],100%
same,residual activity,[30]; [47],79%
same,residual activity,[31]; [47],96%
same,residual activity,[32]; [47],100%
same,residual activity,[33]; [47],100%
same,residual activity,[34]; [47],100%
same,residual activity,[35]; [47],89%
same,residual activity,[36]; [47],100%
same,residual activity,[37]; [47],100%
same,residual activity,[38]; [47],100%
same,residual activity,[39]; [47],99%
same,residual activity,[40]; [47],92%
same,inhibition,[41],13.6%
same,inhibition,[42],1.63%
same,inhibition,[43],5.66%
same,inhibition,[44],32.9%
same,inhibition,[45],3.18%
